Laboratory results from US20250144091A1, “SITAGLIPTIN PREPARATION AND METHOD OF STORAGE THEREOF” (SAWAI PHARMACEUTICAL CO., LTD., priority 2023, published 2025).

Assays:
[1] = set limit for nitrosamine in sitagliptin preparation; cited from earlier work
[2] = Acceptable daily intake of NTTP (EMA/FDA); conditions: 37 ng corresponds to 0.088 ppm
Procedure: Recently, the European Medicines Agency (EMA) and the U.S. Food and Drug Administration (FDA) have announced that 7-Nitroso-3-(trifluoromethyl)-5,6,7,8-tetrahydro[1,2,4]triazolo-[4,3-a]pyrazine (NTTP), which is classified into nitrosamines, has been detected in a sitagliptin preparation. Nitrosamines are known to be potentially carcinogenic, and an acceptable intake of NTTP is set at 37 ng daily. NTTP is produced by the reaction of 3-(trifluoromethyl) 5,6,7,8-tetrahydro[1,2,4]triazolo-[4,3-a]pyrazine, which is produced by hydrolysis of sitagliptin, with nitrogen oxides such as nitrous acid. Nitrogen oxides are contained in small amounts in additives, as well as in the water and air used in the preparation process. Although the production pathway of NTTP is expected as described above, its reactivity is unknown. Therefore, a specific method for reducing the amount of NTTP in a preparation was completely unknown.
Generally, the criterion for reporting the amount of related substances in a preparation is 1,000 ppm, but it is a very difficult task to suppress the production of NTTP in a sitagliptin preparation because a daily acceptable intake of NTTP of 37 ng corresponds to 0.088 ppm.

Structure (SMILES): O=NN1CCn2c(nnc2C(F)(F)F)C1 [NTTP, 7-Nitroso-3-(trifluoromethyl)-5,6,7,8-tetrahydro[1,2,4]triazolo-[4,3-a]pyrazine]
- acceptable intake of NTTP [1]: 37 ng daily
- daily acceptable intake of NTTP expressed as content in the preparation [2]: 0.088 ppm
